Reference: ChEMBL document CHEMBL1201862, “PubChem BioAssay data set” (2004)
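How tested: cells in 96-well plates exposed to compound for 48 hours at five concentrations. GI50: concentration for 50% inhibition of growth.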 Calls of active or inactive are those of the source. No stated cut-off is given here; in the data, active = GI50 up to about 1.1 µM and inactive = higher.

How the values were obtained:
Experiment in all cases: growth of human tumour cells (NCI), 48 h
[1] = system: SK-MEL-2
[2] = system: U-251
[3] = system: SNB-19
[4] = system: SK-MEL-5
[5] = system: COLO 205
[6] = system: HOP-62
[7] = system: T47D
[8] = system: SF-539
[9] = system: SF-295
[10] = system: MDA-MB-231
[11] = system: SF-268
[12] = system: 786-0
[13] = system: A498
[14] = system: MOLT-4
[15] = system: RXF 393
[16] = system: K562
[17] = system: NCI-H23
[18] = system: OVCAR-8
[19] = system: Hs-578T
[20] = system: KM12
[21] = system: SK-MEL-28
[22] = system: SK-OV-3
[23] = system: HCC 2998
[24] = system: MDA-N
[25] = system: RPMI-8226
[26] = system: MCF7
[27] = system: HCT-116
[28] = system: LOX IMVI
[29] = system: NCI-H460
[30] = system: ACHN
[31] = system: OVCAR-3
[32] = system: HOP-92
[33] = system: HL-60
[34] = system: TK-10
[35] = system: MDA-MB-435
[36] = system: A549
[37] = system: SW-620
[38] = system: M14
[39] = system: HCT-15
[40] = system: UO-31
[41] = system: OVCAR-5
[42] = system: HT-29
[43] = system: IGROV-1
[44] = system: PC-3
[45] = system: Malme-3M
[46] = system: CCRF-CEM
[47] = system: UACC-257
[48] = system: DU-145
[49] = system: NCI/ADR-RES
[50] = system: CAKI-1
[51] = system: BT-549
[52] = system: EKVX
[53] = system: UACC-62
[54] = system: SR
[55] = system: NCI-H522
[56] = system: OVCAR-4
[57] = system: NCI-H226
[58] = system: SN12C
[59] = system: SNB-75

SMILES: COc1ccc(Nc2nc3ccccc3n3cccc23)cc1OC
- GI50 [1]: 19.2 µM (inactive)
- GI50 [2]: 16.9 µM (inactive)
- GI50 [3]: 33.7 µM (inactive)
- GI50 [4]: 11.9 µM (inactive)
- GI50 [5]: 14.4 µM (inactive)
- GI50 [6]: 16.3 µM (inactive)
- GI50 [7]: 4.06 µM (inactive)
- GI50 [8]: 16.6 µM (inactive)
- GI50 [9]: 13.2 µM (inactive)
- GI50 [10]: 15.3 µM (inactive)
- GI50 [11]: 21.9 µM (inactive)
- GI50 [12]: 15.4 µM (inactive)
- GI50 [13]: 17.9 µM (inactive)
- GI50 [14]: 9.98 µM (inactive)
- GI50 [15]: 12.9 µM (inactive)
- GI50 [16]: 21 µM (inactive)
- GI50 [17]: 14.8 µM (inactive)
- GI50 [18]: 15.9 µM (inactive)
- GI50 [19]: 37.9 µM (inactive)
- GI50 [20]: 13.1 µM (inactive)
- GI50 [21]: 15.1 µM (inactive)
- GI50 [22]: 27 µM (inactive)
- GI50 [23]: 14.4 µM (inactive)
- GI50 [24]: 15.9 µM (inactive)
- GI50 [25]: 11.8 µM (inactive)
- GI50 [26]: 16.1 µM (inactive)
- GI50 [27]: 16.9 µM (inactive)
- GI50 [28]: 14.4 µM (inactive)
- GI50 [29]: 12.9 µM (inactive)
- GI50 [30]: 21 µM (inactive)
- GI50 [31]: 19.1 µM (inactive)
- GI50 [32]: 34.4 µM (inactive)
- GI50 [33]: 0.0528 µM (active)
- GI50 [34]: 16.5 µM (inactive)
- GI50 [35]: 13.8 µM (inactive)
- GI50 [36]: 17.5 µM (inactive)
- GI50 [37]: 16.2 µM (inactive)
- GI50 [38]: 15.8 µM (inactive)
- GI50 [39]: 13.6 µM
- GI50 [40]: 19.5 µM (inactive)
- GI50 [41]: 32.7 µM (inactive)
- GI50 [42]: 7.74 µM (inactive)
- GI50 [43]: 20.9 µM (inactive)
- GI50 [44]: 11.7 µM (inactive)
- GI50 [45]: 18.9 µM (inactive)
- GI50 [46]: 1.05 µM (active)
- GI50 [47]: 16 µM (inactive)
- GI50 [48]: 17.1 µM (inactive)
- GI50 [49]: 17.4 µM (inactive)
- GI50 [50]: 25.2 µM (inactive)
- GI50 [51]: 18.5 µM (inactive)
- GI50 [52]: 25.7 µM (inactive)
- GI50 [53]: 14.3 µM (inactive)
- GI50 [54]: 12.8 µM (inactive)
- GI50 [55]: 16 µM (inactive)

SMILES: O=C(O)c1nc2ccc(Cl)cc2[nH]c1=O
- GI50 [1]: > 100 µM (inactive)
- GI50 [2]: > 100 µM (inactive)
- GI50 [3]: > 100 µM (inactive)
- GI50 [4]: > 100 µM (inactive)
- GI50 [5]: > 100 µM (inactive)
- GI50 [6]: > 100 µM (inactive)
- GI50 [7]: > 100 µM (inactive)
- GI50 [8]: > 100 µM (inactive)
- GI50 [9]: > 100 µM (inactive)
- GI50 [10]: > 100 µM (inactive)
- GI50 [11]: > 100 µM (inactive)
- GI50 [12]: > 100 µM (inactive)
- GI50 [13]: > 100 µM (inactive)
- GI50 [14]: > 100 µM (inactive)
- GI50 [15]: > 100 µM (inactive)
- GI50 [16]: > 100 µM (inactive)
- GI50 [17]: > 100 µM (inactive)
- GI50 [18]: > 100 µM (inactive)
- GI50 [19]: > 100 µM (inactive)
- GI50 [20]: > 100 µM (inactive)
- GI50 [21]: > 100 µM (inactive)
- GI50 [56]: > 100 µM (inactive)
- GI50 [22]: > 100 µM (inactive)
- GI50 [23]: > 100 µM (inactive)
- GI50 [24]: > 100 µM (inactive)
- GI50 [25]: > 100 µM (inactive)
- GI50 [26]: > 100 µM (inactive)
- GI50 [27]: > 100 µM (inactive)
- GI50 [28]: > 100 µM (inactive)
- GI50 [29]: > 100 µM (inactive)
- GI50 [30]: > 100 µM (inactive)
- GI50 [31]: > 100 µM (inactive)
- GI50 [32]: > 100 µM (inactive)
- GI50 [33]: > 100 µM (inactive)
- GI50 [34]: > 100 µM (inactive)
- GI50 [35]: > 100 µM (inactive)
- GI50 [36]: > 100 µM (inactive)
- GI50 [37]: > 100 µM (inactive)
- GI50 [38]: > 100 µM (inactive)
- GI50 [39]: > 100 µM
- GI50 [40]: 46.8 µM (inactive)
- GI50 [41]: > 100 µM (inactive)
- GI50 [42]: > 100 µM (inactive)
- GI50 [43]: > 100 µM (inactive)
- GI50 [44]: > 100 µM (inactive)
- GI50 [57]: > 100 µM (inactive)
- GI50 [45]: > 100 µM (inactive)
- GI50 [46]: > 100 µM (inactive)
- GI50 [47]: > 100 µM (inactive)
- GI50 [48]: > 100 µM (inactive)
- GI50 [49]: > 100 µM (inactive)
- GI50 [50]: > 100 µM (inactive)
- GI50 [51]: > 100 µM (inactive)
- GI50 [52]: > 100 µM (inactive)
- GI50 [58]: > 100 µM (inactive)
- GI50 [53]: > 100 µM (inactive)
- GI50 [54]: > 100 µM (inactive)
- GI50 [55]: > 100 µM (inactive)

SMILES: Nc1ncc(C=O)c(NCC2(CO)CCC2)n1
- GI50 [1]: 19.3 µM (inactive)
- GI50 [2]: 35.6 µM (inactive)
- GI50 [4]: 19.9 µM (inactive)
- GI50 [5]: 28.4 µM (inactive)
- GI50 [6]: 31.7 µM (inactive)
- GI50 [7]: 14.8 µM (inactive)
- GI50 [8]: 39.7 µM (inactive)
- GI50 [9]: 36.8 µM (inactive)
- GI50 [10]: 45.8 µM (inactive)
- GI50 [11]: 87.9 µM (inactive)
- GI50 [12]: > 100 µM (inactive)
- GI50 [59]: 66.1 µM (inactive)
- GI50 [13]: 26.3 µM (inactive)
- GI50 [14]: 30.5 µM (inactive)
- GI50 [15]: 28.4 µM (inactive)
- GI50 [16]: 36.4 µM (inactive)
- GI50 [17]: 33.5 µM (inactive)
- GI50 [18]: 51.1 µM (inactive)
- GI50 [19]: 41.1 µM (inactive)
- GI50 [20]: 83.9 µM (inactive)
- GI50 [56]: 48.9 µM (inactive)
- GI50 [23]: > 100 µM (inactive)
- GI50 [24]: > 100 µM (inactive)
- GI50 [25]: 8.04 µM (inactive)
- GI50 [26]: 23.9 µM (inactive)
- GI50 [27]: 36.6 µM (inactive)
- GI50 [28]: 32.1 µM (inactive)
- GI50 [29]: 50 µM (inactive)
- GI50 [31]: 50.6 µM (inactive)
- GI50 [32]: 14.5 µM (inactive)
- GI50 [33]: 13 µM (inactive)
- GI50 [34]: 15.4 µM (inactive)
- GI50 [35]: 44.9 µM (inactive)
- GI50 [36]: 37.5 µM (inactive)
- GI50 [37]: 89.9 µM (inactive)
- GI50 [39]: 71.1 µM
- GI50 [40]: 27.5 µM (inactive)
- GI50 [41]: 44.8 µM (inactive)
- GI50 [42]: 64 µM (inactive)
- GI50 [43]: 41.5 µM (inactive)
- GI50 [44]: 82.4 µM (inactive)
- GI50 [57]: 27.7 µM (inactive)
- GI50 [45]: 77.4 µM (inactive)
- GI50 [46]: 38.4 µM (inactive)
- GI50 [47]: > 100 µM (inactive)
- GI50 [48]: 33 µM (inactive)
- GI50 [49]: 65.9 µM (inactive)
- GI50 [50]: 2.25 µM (inactive)
- GI50 [51]: > 10 µM (inactive)
- GI50 [58]: > 100 µM (inactive)
- GI50 [53]: 12.3 µM (inactive)
- GI50 [54]: 18 µM (inactive)
- GI50 [55]: 35.6 µM (inactive)

SMILES: CC(=O)NNc1nc(C)c(C(/C=C/c2ccc([N+](=O)[O-])cc2)=N/NC(N)=O)s1
- GI50 [1]: > 100 µM (inactive)
- GI50 [2]: > 100 µM (inactive)
- GI50 [3]: > 100 µM (inactive)
- GI50 [4]: > 100 µM (inactive)
- GI50 [5]: > 100 µM (inactive)
- GI50 [6]: > 100 µM (inactive)
- GI50 [7]: > 100 µM (inactive)
- GI50 [8]: > 100 µM (inactive)
- GI50 [9]: > 100 µM (inactive)
- GI50 [10]: > 100 µM (inactive)
- GI50 [11]: > 100 µM (inactive)
- GI50 [12]: > 100 µM (inactive)
- GI50 [59]: > 100 µM (inactive)
- GI50 [13]: > 100 µM (inactive)
- GI50 [14]: > 100 µM (inactive)
- GI50 [15]: > 100 µM (inactive)
- GI50 [16]: > 100 µM (inactive)
- GI50 [17]: > 100 µM (inactive)
- GI50 [18]: > 100 µM (inactive)
- GI50 [19]: > 100 µM (inactive)
- GI50 [20]: > 100 µM (inactive)
- GI50 [21]: > 100 µM (inactive)
- GI50 [56]: > 100 µM (inactive)
- GI50 [22]: > 100 µM (inactive)
- GI50 [23]: > 100 µM (inactive)
- GI50 [24]: > 100 µM (inactive)
- GI50 [25]: > 100 µM (inactive)
- GI50 [26]: > 100 µM (inactive)
- GI50 [27]: > 100 µM (inactive)
- GI50 [28]: > 100 µM (inactive)
- GI50 [29]: > 100 µM (inactive)
- GI50 [30]: > 100 µM (inactive)
- GI50 [31]: > 100 µM (inactive)
- GI50 [32]: > 100 µM (inactive)
- GI50 [34]: > 100 µM (inactive)
- GI50 [35]: > 100 µM (inactive)
- GI50 [36]: > 100 µM (inactive)
- GI50 [37]: > 100 µM (inactive)
- GI50 [38]: > 100 µM (inactive)
- GI50 [39]: > 100 µM
- GI50 [40]: > 100 µM (inactive)
- GI50 [41]: > 100 µM (inactive)
- GI50 [42]: > 100 µM (inactive)
- GI50 [43]: 44.8 µM (inactive)
- GI50 [44]: > 100 µM (inactive)
- GI50 [57]: > 100 µM (inactive)
- GI50 [45]: > 100 µM (inactive)
- GI50 [46]: > 100 µM (inactive)
- GI50 [47]: > 100 µM (inactive)
- GI50 [48]: > 100 µM (inactive)
- GI50 [49]: > 100 µM (inactive)
- GI50 [50]: > 100 µM (inactive)
- GI50 [51]: > 100 µM (inactive)
- GI50 [52]: 44.8 µM (inactive)
- GI50 [58]: > 100 µM (inactive)
- GI50 [53]: > 100 µM (inactive)
- GI50 [54]: > 100 µM (inactive)
- GI50 [55]: > 100 µM (inactive)
